Data: publication PMC12040169 (PLOS Biology, 2025)

assay: in vitro; conditions: human, hela cells, % viability

Row | SMILES | viability at 28.5 h, 10 µM [%]
1 | O=C(CCn1c(-c2ccncc2)cc2cccnc21)N1CCCC1 [CBK282151] | 96.7
2 | Sc1nccn1Cc1cccs1 [CBK008454] | 92
3 | c1ccc2[nH]c(CCc3nc4ccccc4[nH]3)nc2c1 [CBK261807] | 111
4 | O=C1NC(=O)C(CCCCN2CCC(Cc3ccccc3)CC2)N1 (centres unmarked) [CBK126435] | 91.8
5 | CCCC/C=C/c1cnc(Nc2ccc(N3CCOCC3)cc2)c2nccn12 [CBK091239] | 91.3
6 | Cc1cc(-c2nnc(SCC(=O)N3CCOCC3)o2)no1 [CBK268984] | 103
7 | NS(=O)(=O)c1ccc(CNC(=O)c2cc(-c3cccc(Cl)c3)nc3ccccc23)cc1 [CBK267774] | 88.7
8 | O=C(Nc1cc(-c2nc3ncccc3o2)ccc1Cl)c1cccnc1 [CBK269700] | 90.8
9 | CN1CCN(c2cccc(-c3cc(C(F)(F)F)cc(C(F)(F)F)c3)n2)CC1 [CBK036982] | 93.3
10 | O=C(Nn1cnnc1)c1ccc(C(=O)Nn2cnnc2)cc1 [CBK261111] | 101
11 | Fc1ccc2c3c([nH]c2c1)C1(CCN(CCCOCc2ccccc2)CC1)NCC3 [CBK039858] | 92.7
12 | Cc1n[n+]2c(C(=O)Nc3ccc(S(=O)(=O)Nc4nccs4)cc3)c(C)[n-]n2c1[N+](=O)[O-] [CBK293983] | 83.2
13 | Cc1c(C2CC(C(F)(F)F)n3nccc3N2)cnn1C (centres unmarked) [CBK288015] | 93.9
14 | Nc1ncc(-c2ccco2)nc1N1CCC(C(=O)O)CC1 [CBK063440] | 87
15 | O=C(CSc1ncn(-c2ccccc2)n1)Nc1cc(Cl)cc(Cl)c1 [CBK268261] | 92
16 | COc1ccc(-n2ncc3c2CC(C)(C)CC3NC(=O)C2CC2)cc1 (centres unmarked) [CBK282337] | 91.1
17 | O=C(CSc1nnc(CN2CCOCC2)n1-c1ccccc1)N1CCc2ccccc21 [CBK266733] | 92.7
18 | COc1ccc(C(=O)N2CCC3(CCN(C(=O)Cc4c[nH]cn4)C3)C2)cc1OC (centres unmarked) [CBK131768] | 107
19 | Cc1ccc(NC(=O)c2cnc(SCc3ccccn3)n(C)c2=O)cc1 [CBK287673] | 92.9
20 | Cc1ccccc1NC(=O)NC(=O)C1CCN(S(C)(=O)=O)CC1 [CBK034862] | 87.7
21 | C[C@H]1[C@@H]2[C@@H](O)C([C@H](C)C(=O)N3CCCCC3)CC[C@@]2(C)CC[C@@H]1NC(=O)c1cnccn1 (some centres unmarked) [CBK289448] | 111

Row | SMILES | viability at 28.5 h, 10 µM [%]
22 | O=C(O)c1cccc(NS(=O)(=O)c2cccc(S(=O)(=O)c3ccc(Cl)c(Cl)c3)c2)c1 [CBK261259] | 102
23 | Cn1cc(C(=O)NCc2ccccc2)c2ccccc21 [CBK200196] | 72.9
24 | O=C(c1ccc2[nH]c(=O)[nH]c2c1)N1CCC2(CCNC2)C1 (centres unmarked) [CBK156747C] | 101
25 | COC1CCN(S(=O)(=O)c2cc(-n3cccn3)ccc2C)C1 (centres unmarked) [CBK306757] | 92.8
26 | O=S(=O)(Cc1noc([C@@H]2C[C@@H](O)CN2Cc2ccc(F)cc2)n1)c1ccc(F)cc1 [CBK288831] | 118
27 | COc1ccc2c(c1)C1(CC(=O)N(CC(=O)N(C)OC)C1=O)C(=O)N2CCCCOc1ccccc1 (centres unmarked) [CBK076032] | 92.6
28 | O=C(Nc1cccc2nsnc12)c1ccc(-c2ccc(Br)cc2)o1 [CBK263752] | 95.9
29 | N#CC1=C(Nc2ccccc2)Oc2cc(N)ccc2C1c1cccnc1 (centres unmarked) [CBK269435] | 100
30 | Fc1cccc(-c2nc3cnccn3c2NCc2ccco2)c1 [CBK282323] | 93.5
31 | O=C(O)COc1ccc(Br)cc1C(c1c[nH]c2ccccc12)c1c[nH]c2ccccc12 [CBK265720] | 94.6
32 | CCCCc1nc(CS(=O)(=O)C(C)c2nc(C(C)C)no2)cs1 (centres unmarked) [CBK305707] | 88.3
33 | COc1ccc(O)c(C(=O)c2cnn(-c3ccc(Cl)c(C(=O)O)c3)c2)c1 [CBK297914] | 90.2
34 | Cn1nc(C(=O)N2Cc3cnn(Cc4ccc(F)cc4)c3C2)ccc1=O [CBK306855] | 83
35 | O=C1CCC(=O)N1CCOc1nccnc1N1CCN(CCc2ccccc2)CC1 [CBK084302] | 99.4
36 | O=c1c(Oc2ccc3ccccc3c2)c(C(F)(F)F)oc2c(CN3CCOCC3)c(O)ccc12 [CBK264487] | 103
37 | COc1ccc(O[C@@H]2CCCC[C@@H]2N2CCCCC2)cc1 [CBK015661C] | 90.6
38 | Cn1ncc2c1CCCN(C(=O)COc1ccc(C(C)(C)C)cc1)C2 [CBK285286] | 115
39 | N#CCCN(C(=O)NCCOc1ccccc1)C1CCCCC1 [CBK156374] | 94.9
40 | CN(C(=O)c1cc(-c2cccs2)[nH]n1)c1ccccc1 [CBK288115] | 86.1
41 | O=C1CCCN1CCCNc1nccnc1-c1ccc(CO)cc1 [CBK036860] | 87.2
42 | O=C(c1cc(F)cc(F)c1)N1CCC(O)(c2cccnc2F)CC1 [CBK284361] | 92.7

same assay, conditions: human, hela cells, % viability, bulk resorufin, single well

Row | SMILES | viability at 28.5 h, 10 µM [%]
43 | Cc1ccc2[nH]cc(CCN)c2c1 [CBK004365] | 103
44 | Cc1noc(C)c1NC(=O)N1CCC2(CC1)OCc1cc(F)ccc1O2 [CBK060721] | 97.8
